Laboratory results reported in patent US20240238361A1, “METHODS OF TREATING FIBROSIS AND HYPOXIA-ASSOCIATED DAMAGE TO PERIPHERAL NERVES” (Temple Therapeutics BV, priority 2021, published 2024).
Entries after “also recorded” stand apart in the source; their conditions may differ. Where a SMILES comes first, the peptide text is derived from it.

Assays:
[1] = test system: hypoxic primary rat fibroblasts; assay: Immunofluorescence of HIF1-α signaling and pro-fibrotic proteins; type: cell-based
Protocol: (§1) In order to mimic the hypoxic micro-environment, primary rat fibroblasts were exposed to hypoxia. Cells were exposed to 2 separate conditions—continuous and episodic hypoxia. For continuous hypoxia, cells were incubated in a hypoxic chamber (2% 02) for 48 h and treated with or without L-alanyl-L-glutamine and no restoration to normoxia as shown in FIG. 1C. Cells were collected and processed for experiments subsequently.
For episodic hypoxia, cells were incubated in a hypoxic chamber (2% 02) for 2 h followed by restoration to normoxia for 48 h at which time cells were treated with or without L-alanyl-L-glutamine, as shown by FIG. 1C. Cells were collected after 48 h and processed for experiments subsequently.
For immunofluorescence microscopy, cells were grown on 4-well chamber slides (IBIDI) under appropriate hypoxic conditions with or without L-alanyl-L-glutamine treatment. Cells were washed with ice-cold PBS followed by fixation with 4% paraformaldehyde. Fixed cells were permeabilized with 0.5% Triton X-100 and incubated with blocking reagent (1% BSA in PBS) for 30 minutes, prior to overnight incubation with appropriate primary antibodies. After wash steps, cultures were labeled and incubated with secondary antibodies and 4′-6-didiamino-2-phenylindole, dihydrochloride (DAPI, Sigma) were used to stain the nuclei.
Fluorescence microscopy image analysis was performed using NIKON Ti2 inverted microscope equipped with Photometrics Prime 95B camera for fluorescence imaging. All images were digitally processed, all quantifications and further arrangement for presentation was done using NIS-Elements Advanced Research analysis software. For quantification analysis, pictures from random fields in independent wells were taken at 10× and 40× magnification objectives and the total protein expression for each marker was determined in reference to the total number of cells based on DAPI quantification.
For immunofluorescence, the primary antibodies along with their respective concentrations are listed below. Anti-collagen I (1:500; ab34710), anti-collagen IV (1:500; ab6586) and anti-α-SMA (1:500; ab124964) were purchased from Abcam. Anti-HSP-47 (1:250; sc-13150), anti-fibronectin (1:250; sc-8422), and anti-HIF-1α (1:500; sc-13515) were ordered from Santa Cruz Biotechnology. Anti-SMAD 2/3 (1:500; 85865S) was purchased from Cell Signaling Technology. In addition to this, the following secondary antibodies: Goat anti-mouse Alexa Fluor (AF) 488 (A11029), goat anti-mouse AF546 (A11030), goat anti-rabbit AF488 (A11034) and goat anti-rabbit AF546 (A11010) from Life Technologies. DAPI (D9564) from Sigma was used at a concentration of 1:1000.

[2] = test system: hypoxic primary rat fibroblasts; assay: Western blotting of whole cell lysates for HIF1-α signaling and pro-fibrotic proteins; type: cell-based
Protocol: In order to mimic the hypoxic micro-environment, primary rat fibroblasts were exposed to hypoxia. Cells were exposed to 2 separate conditions—continuous and episodic hypoxia. For continuous hypoxia, cells were incubated in a hypoxic chamber (2% 02) for 48 h and treated with or without L-alanyl-L-glutamine and no restoration to normoxia as shown in FIG. 1C. Cells were collected and processed for experiments subsequently. For episodic hypoxia, cells were incubated in a hypoxic chamber (2% 02) for 2 h followed by restoration to normoxia for 48 h at which time cells were treated with or without L-alanyl-L-glutamine, as shown by FIG. 1C. Cells were collected after 48 h and processed for experiments subsequently. Protein samples were prepared by resuspending cells growing in 6-well plates in RIPA lysis and extraction buffer (Thermo) containing protease and phosphatase inhibitors (Roche). Protein concentrations were quantified using protein assay dye reagent (Bio-Rad). Samples were mixed with 4× LDS Sample buffer (Thermo) and denatured by boiling at 95° C. for 6 minutes. Following protein concentration estimations, equal protein samples containing 25 μg total protein were loaded and resolved in 4-15% Mini protean TGX gels (Bio-Rad). Fractionated proteins were transferred to 0.2 μm nitrocellulose membranes using Trans-Blot® Turbo™ Transfer System (Bio-Rad). Membranes were blocked with 5% Non-Fat dry milk and incubated overnight with primary antibodies. The following primary antibodies along with their respective concentrations were used during overnight incubation. Anti-collagen I (1:500; ab34710) and anti-collagen IV (1:500; ab6586) were purchased from Abcam. Anti-heat shock protein 47 (HSP-47) (1:400; sc-13150) and anti-fibronectin (1:500; sc-8422) were ordered from Santa Cruz Biotechnology. Other antibodies including anti-SMAD 2/3 (1:500; 85865S), anti-GAPDH (1:5000; 97166S) and anti-HIF-1α (1:750; 14179S) were from Cell Signaling Technology. Horseradish peroxidase-conjugated secondary antibodies at a concentration of 1:5000 were used for immunoreactivity and detection of protein bands were does using Pierce™ ECL Plus Western Blotting Substrate (Thermo) and on the ChemiDoc Imaging Systems (Bio-Rad).

[3] = test system: hypoxic primary rat fibroblasts; assay: Phosphoproteomics (LC-MS/MS) and pathway analysis under chronic hypoxia; type: cell-based; settings: vs untreated chronic hypoxic samples
Protocol: as §1
Following fibroblast isolation from sciatic nerves of rats, (8E10 primary fibroblasts) were lysed in 80 ul of 8M Urea, 0.1M ammonium bicarbonate, phosphatase inhibitors (Sigma P5726&P0044) by sonication (Bioruptor, 10 cycles, 30 seconds on/off, Diagenode, Belgium) and proteins were digested as described previously (PMID:27345528). Shortly, proteins were reduced with 5 mM TCEP for 60 min at 37° C. and alkylated with 10 mM chloroacetamide for 30 min at 37° C. After diluting samples with 100 mM ammonium bicarbonate buffer to a final urea concentration of 1.6M, proteins were digested by incubation with sequencing-grade modified trypsin (1/50, w/w; Promega, Madison, Wisconsin) for 12 h at 37° C. After acidification using 5% TFA, peptides were desalted using C18 reverse-phase spin columns (Macrospin, Harvard Apparatus) according to the manufacturer's instructions, dried under vacuum and stored at −20° C. until further use. […]

[4] = test system: hypoxic primary rat fibroblasts; assay: Alamar Blue viability / proliferation assay under hypoxia; type: cell-based; settings: for cell proliferation vs untreated controls: various concentrations
Protocol: In order to mimic the hypoxic micro-environment, primary rat fibroblasts were exposed to hypoxia. Cells were exposed to 2 separate conditions—continuous and episodic hypoxia. For continuous hypoxia, cells were incubated in a hypoxic chamber (2% 02) for 48 h and treated with or without L-alanyl-L-glutamine and no restoration to normoxia as shown in FIG. 1C. Cells were collected and processed for experiments subsequently. For episodic hypoxia, cells were incubated in a hypoxic chamber (2% 02) for 2 h followed by restoration to normoxia for 48 h at which time cells were treated with or without L-alanyl-L-glutamine, as shown by FIG. 1C. Cells were collected after 48 h and processed for experiments subsequently. Proliferation of primary fibroblasts were determined by alamar blue assay (Invitrogen). Briefly, cells were plated in a 96-well plate treated with or without L-alanyl-L-glutamine under aforementioned hypoxic conditions for 48 h. The interaction of alamar blue with the cells was analyzed for 4 h by measuring fluorescence readings at 540 nm and 585 nm respectively. Proliferation was also detected using flow cytometry based EdU assay using EdU-Click 488 (baseclick).

[5] = room temperature; cited from earlier work
[6] = continuous hypoxia 48 h, various concentrations
[7] = episodic hypoxia 2 h, then treatment 48 h
[8] = continuous hypoxia 48 h, 1 mM, 10 mM and 100 mM, dose-dependent

SMILES: C[C@H](N)C(=O)N[C@@H](CCC(N)=O)C(=O)O [L-alanyl-L-glutamine] (H-Ala-Gln-OH)
- Collagen-I expression (immunofluorescence) [1, 6]: significantly reduced in a non-dose dependent manner
- Collagen-IV expression (immunofluorescence) [1, 6]: dose-dependent downregulation
- Fibronectin expression (immunofluorescence) [1, 6]: significantly reduced in a non-dose dependent manner
- HIF1-α expression (immunofluorescence) [1, 6]: significant reduction; also recorded: dose-dependent downregulation
- HSP47 expression (immunofluorescence) [1, 6]: dose-dependent downregulation
- SMAD 2/3 expression (immunofluorescence) [1, 6]: significant reduction; also recorded: dose-dependent downregulation
- Collagen-I expression (immunofluorescence) [1, 7]: significantly reduced at 1 mM L-alanyl-L-glutamine, but remained constant thereafter
- Collagen-IV expression (immunofluorescence) [1, 7]: effectively reduces expression
- Fibronectin expression (immunofluorescence) [1, 7]: effectively reduces expression
- HIF1-α expression (immunofluorescence) [1, 7]: significant downregulation
- HSP47 expression (immunofluorescence) [1, 7]: effectively reduces expression
- SMAD 2/3 expression (immunofluorescence) [1, 7]: significant downregulation
- HSP47 expression (western blot) ([2]; continuous hypoxia 48 h): reduces expression of HSP47 but we did not observe a significant downregulation
- HIF1-α expression (western blot) ([2]; continuous hypoxia 48 h, 1 mM, 10 mM and 100 mM): significantly down regulated
- Collagen-I expression (western blot) [2, 8]: significantly reduced
- Collagen-IV expression (western blot) [2, 8]: significantly reduced
- Fibronectin expression (western blot) [2, 8]: significantly reduced
- SMAD 2/3 expression (western blot) ([2]; continuous hypoxia 48 h, 100 mM only): significantly downregulated
- COL-IV expression (western blot) ([2]; episodic hypoxia, 1 mM): significant downregulation
- HIF1-α signaling factors and pro-fibrosis mechanistic targets (western blot) ([2]; episodic hypoxia, across the various concentrations): not any significant downregulation
- pro-fibrotic factors Fndel, Fndc3b, Col1a1, Akt1s1 and Pxn (phosphoproteome) [3]: significantly downregulated
- viability and cell proliferation ([4]; Alamar Blue, 48 h, hypoxic, 1 mM, 10 mM and 100 mM): does not affect the viability and cell proliferation
- cell proliferation vs untreated controls ([4]; continuous (48 h) hypoxia): no change in cell proliferation
- cell proliferation vs untreated controls ([4]; episodic (2 h) hypoxia): no change in cell proliferation

SMILES: NC(=O)CC[C@H](N)C(=O)O [L-glutamine]
- water solubility [5]: about 40 g/L
